What was measured:
[1] = molecular target: T1, human A1 AR (Homo sapiens, UniProt P30542); assay: Radioligand binding assay at human A1 AR vs. [^3H]CCPA; settings: human (h); CHO cell membranes; n = 3
T1 construct: expressed in transfected cells; host or cells: CHO cells
T1 sequence (P30542 1-326): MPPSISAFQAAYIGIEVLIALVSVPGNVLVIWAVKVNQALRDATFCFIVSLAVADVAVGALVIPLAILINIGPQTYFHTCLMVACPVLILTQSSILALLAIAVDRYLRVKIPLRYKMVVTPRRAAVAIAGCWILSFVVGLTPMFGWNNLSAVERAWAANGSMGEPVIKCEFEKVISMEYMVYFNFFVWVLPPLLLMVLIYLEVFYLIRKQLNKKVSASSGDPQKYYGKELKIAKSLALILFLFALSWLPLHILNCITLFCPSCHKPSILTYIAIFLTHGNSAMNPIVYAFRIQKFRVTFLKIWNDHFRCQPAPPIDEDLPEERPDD
How it was run: (§1)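 Source of receptor: rat brain cortex (A1), rat brain striatum (A2A), recombinant CHO cell membranes (human subtypes). Binding only.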

[2] = molecular target: T2, rat A1 AR (Rattus norvegicus, UniProt P25099); assay: Radioligand binding assay at rat A1 AR (rat brain cortex) vs. [^3H]CCPA; settings: rat (r); for Ki: rat brain cortex, n = 3
T2 construct: A1 ARs of rat brain cortical membrane; from tissue; host or cells: rat brain cortex membranes
T2 sequence (P25099 1-326): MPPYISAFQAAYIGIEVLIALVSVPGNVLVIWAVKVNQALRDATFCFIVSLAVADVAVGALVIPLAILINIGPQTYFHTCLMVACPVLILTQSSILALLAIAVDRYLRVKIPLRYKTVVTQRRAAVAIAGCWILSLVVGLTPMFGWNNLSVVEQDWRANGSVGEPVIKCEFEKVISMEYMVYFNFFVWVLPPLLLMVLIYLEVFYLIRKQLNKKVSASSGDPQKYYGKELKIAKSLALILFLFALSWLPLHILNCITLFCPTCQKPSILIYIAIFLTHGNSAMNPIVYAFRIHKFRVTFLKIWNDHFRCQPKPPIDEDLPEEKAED
How it was run: as §1

[3] = molecular target: T3, rat A2A AR (Rattus norvegicus, UniProt P30543); assay: Radioligand binding assay at rat A2A AR (rat brain striatum) vs. [^3H]MSX-2; settings: rat (r); for Ki: rat brain striatum, n = 3, read-out: Ki ± SEM, A2A vs. [^3H]MSX-2
T3 construct: A2A ARs of rat brain striatal membrane preparations; from tissue; host or cells: rat brain striatum membranes
T3 sequence (P30543 whole entry): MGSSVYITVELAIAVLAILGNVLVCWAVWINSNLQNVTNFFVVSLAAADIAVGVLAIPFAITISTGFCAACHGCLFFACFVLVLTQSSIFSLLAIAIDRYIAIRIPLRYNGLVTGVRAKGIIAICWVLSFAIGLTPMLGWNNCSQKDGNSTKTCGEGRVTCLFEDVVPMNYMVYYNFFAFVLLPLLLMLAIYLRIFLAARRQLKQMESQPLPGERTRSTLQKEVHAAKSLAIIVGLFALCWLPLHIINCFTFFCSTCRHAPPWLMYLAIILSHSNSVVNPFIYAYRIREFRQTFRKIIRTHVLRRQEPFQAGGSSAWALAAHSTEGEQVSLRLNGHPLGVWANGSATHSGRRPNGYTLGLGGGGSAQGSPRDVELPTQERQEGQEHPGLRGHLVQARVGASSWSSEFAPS
How it was run: as §1

[4] = molecular target: T4, human A2B AR (Homo sapiens, UniProt P29275); assay: Radioligand binding assay at human A2B AR vs. [^3H]PSB-603; settings: for Ki: CHO cell membranes, n = 2 (n = 3 where marked a), read-out: Ki ± SEM, A2B vs. [^3H]PSB-603; for inhibition at 1 µM: at 1,000 nM
T4 construct: expressed in transfected cells; host or cells: CHO cells
T4 sequence (P29275 1-332): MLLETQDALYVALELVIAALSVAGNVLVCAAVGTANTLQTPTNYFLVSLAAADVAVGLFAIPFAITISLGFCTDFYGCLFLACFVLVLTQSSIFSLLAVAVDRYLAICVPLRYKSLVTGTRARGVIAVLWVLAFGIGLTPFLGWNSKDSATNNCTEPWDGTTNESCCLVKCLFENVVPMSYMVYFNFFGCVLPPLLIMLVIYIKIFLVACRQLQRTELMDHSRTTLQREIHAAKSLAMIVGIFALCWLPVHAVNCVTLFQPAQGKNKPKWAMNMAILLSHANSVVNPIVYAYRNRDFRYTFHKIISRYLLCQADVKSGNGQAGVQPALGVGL
How it was run: as §1

[5] = molecular target: T5, human A3 AR (Homo sapiens, UniProt P0DMS8); assay: Radioligand binding assay at human A3 AR vs. [^3H]PSB-11; settings: for Ki: CHO cell membranes, n = 2 (n = 3 where marked a), read-out: Ki ± SEM, A3 vs. [^3H]PSB-11; for inhibition at 10 µM: at 10,000 nM, read-out: % inhibition of radioligand binding at indicated concentration, A3 vs. [^3H]PSB-11
T5 construct: expressed in transfected cells; host or cells: CHO cells
T5 sequence (P0DMS8 1-318): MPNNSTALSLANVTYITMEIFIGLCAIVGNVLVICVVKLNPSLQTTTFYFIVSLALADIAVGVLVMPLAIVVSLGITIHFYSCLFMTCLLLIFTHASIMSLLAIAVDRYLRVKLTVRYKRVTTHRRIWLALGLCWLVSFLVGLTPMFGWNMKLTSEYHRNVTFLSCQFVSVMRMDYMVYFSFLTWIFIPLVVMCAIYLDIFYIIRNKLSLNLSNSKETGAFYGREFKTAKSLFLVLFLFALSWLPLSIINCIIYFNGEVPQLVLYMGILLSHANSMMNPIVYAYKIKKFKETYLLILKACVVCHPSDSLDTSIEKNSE
How it was run: as §1

[6] = read-out: % inhibition of radioligand binding at indicated concentration, A2B vs. [^3H]PSB-603

Compound	Ki [1] [µM]	Ki [2] [µM]	Ki [3] [µM]	Ki [4] [µM]	inhibition at 1 µM [4, 6] [%]	Ki [5] [µM]	inhibition at 10 µM [5] [%]	inhibition at 1.5 µM ([2]; read-out: % inhibition of radioligand binding at indicated concentration, A1 vs. [^3H]CCPA, at 1,500 nM) [%]	% inhibition of radioligand binding at indicated concentration, A2A vs. [^3H]MSX-2 ([3]; at 1,000 nM) [%]	inhibition at 0.1 µM ([4]; at 100 nM, read-out: % inhibition of radioligand binding at indicated concentration, A2B vs. [^3H]PSB-603) [%]
CCn1c(=O)c2c(nc3n2CCN(Cc2cc(C(F)(F)F)ccc2Cl)C3)n(CC)c1=O [Compound 15n, 8-(2-chloro-5-(trifluoromethyl)benzyl)-1,3-diethyl-6,7,8,9-tetrahydropyrazino[2,1-f]purine-2,4(1H,3H)-dione]	0.0226 ± 0.0027	0.0196 ± 0.003	0.871 ± 0.05	> 1	23	> 10	38			
CCn1c(=O)c2c(nc3n2CCN(Cc2cc(F)c(F)c(F)c2)C3)n(CC)c1=O [Compound 15r, 1,3-diethyl-8-(3,4,5-trifluorobenzyl)-6,7,8,9-tetrahydropyrazino[2,1-f]purine-2,4(1H,3H)-dione]	1.19	> 1.5	> 1	> 1	23	> 10	14	25	36	
CCn1c(=O)n(C)c(=O)c2c1nc1n2CCN(Cc2ccc(Cl)c(Cl)c2)C1 [Compound 16a, 8-(3,4-dichlorobenzyl)-1-ethyl-3-methyl-6,7,8,9-tetrahydropyrazino[2,1-f]purine-2,4(1H,3H)-dione]	0.396 ± 0.154	0.236 ± 0.023	1.1	> 1	5	> 10	19			
CCn1c(=O)n(C)c(=O)c2c1nc1n2CCN(Cc2cc(Cl)cc(Cl)c2)C1 [Compound 16b, 8-(3,5-dichlorobenzyl)-1-ethyl-3-methyl-6,7,8,9-tetrahydropyrazino[2,1-f]purine-2,4(1H,3H)-dione]	0.143 ± 0.016	0.0493 ± 0.008	1.49	> 1	5	> 10	23			
Cn1c(=O)c2c(nc3n2CCN(Cc2ccc(Cl)c(Cl)c2)C3)n(C2CC2)c1=O [Compound 17, 8-(3,4-dichlorobenzyl)-1-cyclopropyl-3-methyl-6,7,8,9-tetrahydropyrazino[2,1-f]purine-2,4(1H,3H)-dione]	1.13	0.584 ± 0.008	3.94	> 0.1		> 10	26			2
C#CCn1c(=O)c2c(nc3n2CCN(Cc2ccc(Cl)c(Cl)c2)C3)n(C)c1=O [Compound 19a, 8-(3,4-dichlorobenzyl)-1-methyl-3-propargyl-6,7,8,9-tetrahydropyrazino[2,1-f]purine-2,4(1H,3H)-dione]	0.967 ± 0.211	0.292 ± 0.021	0.642 ± 0.194	> 1	23	5.63				
C#CCn1c(=O)c2c(nc3n2CCN(Cc2cc(C(F)(F)F)ccc2Cl)C3)n(C)c1=O [Compound 19b, 8-(2-chloro-5-(trifluoromethyl)benzyl)-1-methyl-3-propargyl-6,7,8,9-tetrahydropyrazino[2,1-f]purine-2,4(1H,3H)-dione]	0.11 ± 0.004	0.153 ± 0.01	0.414 ± 0.049	> 1	3	> 10	25			
C#CCn1c(=O)c2c(nc3n2CCN(c2cccc(OC)c2)C3)n(CC)c1=O [Compound 20c, 1-ethyl-8-(3-methoxyphenyl)-3-propargyl-6,7,8,9-tetrahydropyrazino[2,1-f]purine-2,4(1H,3H)-dione]	0.946 ± 0.166	0.328 ± 0.07	0.25 ± 0.08	> 1	38	7.16				

Source: publication PMC6028563, “Probing Substituents in the 1- and 3-Position: Tetrahydropyrazino-Annelated Water-Soluble Xanthine Derivatives as Multi-Target Drugs With Potent Adenosine Receptor Antagonistic Activity” (Frontiers in Chemistry, 2018)
